What was measured:
Test in all cases: relative viability (nuclei count vs DMSO), 5 days (fraction); higher = more cells survive
Bortezomib + Vorinostat = compound: CC(C)C[C@H](NC(=O)[C@H](Cc1ccccc1)NC(=O)c1cnccn1)B(O)O [Bortezomib] + O=C(CCCCCCC(=O)Nc1ccccc1)NO [Vorinostat] (partner 1 µM)
Procedure, shortened: (§1)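 After 5 days of treatment, lung cancer cells in 1536-well plates were fixed and stained in a single step (final 0.05% Triton X-100, 1% formaldehyde, 1 ug/ml Hoechst) and their nuclei counted on 4× images. Treatment had been applied by pin tool the day after seeding as one drug alone or as a fixed anchor-drug dose with five library-drug doses (not always all listed) in √10 steps. Relative viability is the nuclei count of treated wells divided by that of vehicle wells, and values are medians of duplicate plates.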

Bortezomib + Palbociclib = compound: CC(C)C[C@H](NC(=O)[C@H](Cc1ccccc1)NC(=O)c1cnccn1)B(O)O [Bortezomib] + CC(=O)c1c(C)c2cnc(Nc3ccc(N4CCNCC4)cn3)nc2n(C2CCCC2)c1=O [Palbociclib] (partner 0.5 µM)
Procedure, shortened: as §1

Obatoclax + Linsitinib = compound: COC1=CC(c2cc3ccccc3[nH]2)=N/C1=C\c1[nH]c(C)cc1C [Obatoclax] + C[C@]1(O)C[C@@H](c2nc(-c3ccc4ccc(-c5ccccc5)nc4c3)c3c(N)nccn32)C1 [Linsitinib] (partner 1 µM)
Procedure, shortened: as §1

[1] = compound: CC1=CC(=NN1)NC2=CC(=NC(=N2)/C=C/C3=CC=CC=C3)N4CCN(CC4)C + COc1cccc2cc(-c3nc([C@H]4CC[C@H](C(=O)O)CC4)n4ncnc(N)c34)[nH]c12 [OSI-027] (partner 0.5 µM)
Procedure, shortened: as §1

LK-2 showed a relative viability (Bortezomib + Vorinostat; first compound 0.0002 µM) of 0.401, a relative viability (Bortezomib + Vorinostat; first compound 0.000632 µM) of 0.416 and a relative viability (Bortezomib + Vorinostat; first compound 0.002 µM) of 0.323. For the same cell line, the relative viability (Bortezomib + Vorinostat; first compound 0.006325 µM) was 0.173, the relative viability (Bortezomib + Vorinostat; first compound 0.02 µM) was 0.195 and the relative viability (Bortezomib + Palbociclib; first compound 0.0002 µM) was 0.649. The relative viability (Bortezomib + Palbociclib; first compound 0.000632 µM) was 0.685, the relative viability (Bortezomib + Palbociclib; first compound 0.002 µM) was 0.415 and the relative viability (Bortezomib + Palbociclib; first compound 0.006325 µM) was 0.125. The relative viability (Bortezomib + Palbociclib; first compound 0.02 µM) was 0.133, the relative viability (Obatoclax + Linsitinib; first compound 0.01 µM) was 0.524 and the relative viability (Obatoclax + Linsitinib; first compound 0.03162 µM) was 0.383. For the same cell line, the relative viability (Obatoclax + Linsitinib; first compound 0.1 µM) was 0.826, the relative viability (Obatoclax + Linsitinib; first compound 0.3162 µM) was 0.521 and the relative viability (Obatoclax + Linsitinib; first compound 1 µM) was 0.662. It also gave a relative viability ([1]; first compound 0.08 µM) of 0.207, a relative viability ([1]; first compound 0.253 µM) of 0.222 and a relative viability ([1]; first compound 0.8 µM) of 0.179. It also gave a relative viability ([1]; first compound 2.53 µM) of 0.171 and a relative viability ([1]; first compound 8 µM) of 0.124.

With LOU-NH91 the relative viability (Bortezomib + Vorinostat; first compound 0.0002 µM) was 0.88, the relative viability (Bortezomib + Vorinostat; first compound 0.000632 µM) was 0.816 and the relative viability (Bortezomib + Vorinostat; first compound 0.002 µM) was 0.413. The relative viability (Bortezomib + Vorinostat; first compound 0.006325 µM) was 0.313, the relative viability (Bortezomib + Vorinostat; first compound 0.02 µM) was 0.359 and the relative viability (Bortezomib + Palbociclib; first compound 0.0002 µM) was 0.512. The relative viability (Bortezomib + Palbociclib; first compound 0.000632 µM) was 0.523, the relative viability (Bortezomib + Palbociclib; first compound 0.002 µM) was 0.383 and the relative viability (Bortezomib + Palbociclib; first compound 0.006325 µM) was 0.32. It also gave a relative viability (Bortezomib + Palbociclib; first compound 0.02 µM) of 0.302, a relative viability (Obatoclax + Linsitinib; first compound 0.01 µM) of 0.949 and a relative viability (Obatoclax + Linsitinib; first compound 0.03162 µM) of 0.865. It also gave a relative viability (Obatoclax + Linsitinib; first compound 0.1 µM) of 0.792, a relative viability (Obatoclax + Linsitinib; first compound 0.3162 µM) of 0.833 and a relative viability (Obatoclax + Linsitinib; first compound 1 µM) of 0.761. The relative viability ([1]; first compound 0.08 µM) was 0.767, the relative viability ([1]; first compound 0.253 µM) was 0.842 and the relative viability ([1]; first compound 0.8 µM) was 0.742. The relative viability ([1]; first compound 2.53 µM) was 0.699 and the relative viability ([1]; first compound 8 µM) was 0.507.

LU99A gave a relative viability (Bortezomib + Vorinostat; first compound 0.0002 µM) of 0.479, a relative viability (Bortezomib + Vorinostat; first compound 0.000632 µM) of 0.427 and a relative viability (Bortezomib + Vorinostat; first compound 0.002 µM) of 0.533. The relative viability (Bortezomib + Vorinostat; first compound 0.006325 µM) was 0.464, the relative viability (Bortezomib + Vorinostat; first compound 0.02 µM) was 0.152 and the relative viability (Bortezomib + Palbociclib; first compound 0.0002 µM) was 0.464. It also gave a relative viability (Bortezomib + Palbociclib; first compound 0.000632 µM) of 0.364, a relative viability (Bortezomib + Palbociclib; first compound 0.002 µM) of 0.405 and a relative viability (Bortezomib + Palbociclib; first compound 0.006325 µM) of 0.261. It also gave a relative viability (Bortezomib + Palbociclib; first compound 0.02 µM) of 0.164, a relative viability (Obatoclax + Linsitinib; first compound 0.01 µM) of 0.486 and a relative viability (Obatoclax + Linsitinib; first compound 0.03162 µM) of 0.437. It also gave a relative viability (Obatoclax + Linsitinib; first compound 0.1 µM) of 0.498, a relative viability (Obatoclax + Linsitinib; first compound 0.3162 µM) of 0.307 and a relative viability (Obatoclax + Linsitinib; first compound 1 µM) of 0.475. It also gave a relative viability ([1]; first compound 0.08 µM) of 0.292, a relative viability ([1]; first compound 0.253 µM) of 0.327 and a relative viability ([1]; first compound 0.8 µM) of 0.28. For the same cell line, the relative viability ([1]; first compound 2.53 µM) was 0.256 and the relative viability ([1]; first compound 8 µM) was 0.155.

With LXF-289 the relative viability (Bortezomib + Vorinostat; first compound 0.0002 µM) was 0.732, the relative viability (Bortezomib + Vorinostat; first compound 0.000632 µM) was 0.734 and the relative viability (Bortezomib + Vorinostat; first compound 0.002 µM) was 0.896. It also gave a relative viability (Bortezomib + Vorinostat; first compound 0.006325 µM) of 0.0875, a relative viability (Bortezomib + Vorinostat; first compound 0.02 µM) of 0.0888 and a relative viability (Bortezomib + Palbociclib; first compound 0.0002 µM) of 0.573. It also gave a relative viability (Bortezomib + Palbociclib; first compound 0.000632 µM) of 0.58, a relative viability (Bortezomib + Palbociclib; first compound 0.002 µM) of 0.633 and a relative viability (Bortezomib + Palbociclib; first compound 0.006325 µM) of 0.102. For the same cell line, the relative viability (Bortezomib + Palbociclib; first compound 0.02 µM) was 0.0908, the relative viability (Obatoclax + Linsitinib; first compound 0.01 µM) was 0.903 and the relative viability (Obatoclax + Linsitinib; first compound 0.03162 µM) was 0.969. The relative viability (Obatoclax + Linsitinib; first compound 0.1 µM) was 0.961, the relative viability (Obatoclax + Linsitinib; first compound 0.3162 µM) was 0.93 and the relative viability (Obatoclax + Linsitinib; first compound 1 µM) was 0.994. For the same cell line, the relative viability ([1]; first compound 0.08 µM) was 0.826, the relative viability ([1]; first compound 0.253 µM) was 0.834 and the relative viability ([1]; first compound 0.8 µM) was 0.673. For the same cell line, the relative viability ([1]; first compound 2.53 µM) was 0.42 and the relative viability ([1]; first compound 8 µM) was 0.0972.

From the supplement of paper PMC10307832
